Common to all, as to type: cell-based
Assay [1] has as its system third stage larvae of Haemonchus contortus. Description: Haemonchus contortus L3 (HcL3) Assay. The settings on record: 96 h, read-out: HcL3 Minimum Effective Dose (MED).
The subject of assay [2] is 4th stage larvae (L4) of Dirofilaria immitis. Description: Dirofilaria immitis, L4 Stage (DiL4) In Vitro Assay. The settings on record: Dirofilaria immitis, 72 h, read-out: DiL4 Minimum Effective Dose (MED), approximately 72 hours incubation; L4 larvae assessed for survival or paralysis.
Assay [3] has as its system microfilariae of Dirofilaria immitis. Description: Dirofilaria immitis, Microfilaria (DiMF) In vitro Assay. As to conditions: 72 h, read-out: DiMF Minimum Effective Dose (MED), approximately 72 hours incubation, microfilariae assessed for survival or paralysis.

`CC(C)C[C@H]1C(=O)O[C@H](Cc2ccc(Cn3cccc3C(N)=O)cc2)C(=O)N(C)[C@@H](CC(C)C)C(=O)O[C@H](C)C(=O)N(C)[C@@H](CC(C)C)C(=O)O[C@H](Cc2ccc(Cn3cccc3C(N)=O)cc2)C(=O)N(C)[C@@H](CC(C)C)C(=O)O[C@H](C)C(=O)N1C` [Example 9-32, 1-[[4-[[(2R,5S,8R,11 S,14R,17S,20R,23S)-14-[[4-[(2-carbamoylpyrrol-1-yl)methyl]phenyl]methyl]-5,11,17,23-tetraisobutyl-4,8,10,16,20,22-hexamethyl-3,6,9,12,15,18,21,24-octaoxo-1,7,13,19-tetraoxa-4,10,16,22-tetrazacyclotetracos-2-yl]methyl]phenyl]methyl]pyrrole-2-carboxamide]: the minimal effective concentration in assay [1] was not above 1 µM; in assay [2], 0.0001 to 0.001 µM.
The corresponding values for `CC(C)C[C@H]1C(=O)O[C@H](Cc2ccc(Cn3cccn3)cc2)C(=O)N(C)[C@@H](CC(C)C)C(=O)O[C@H](C)C(=O)N(C)[C@@H](CC(C)C)C(=O)O[C@H](Cc2ccccc2)C(=O)N(C)[C@@H](CC(C)C)C(=O)O[C@H](C)C(=O)N1C` [Example 2-1, (3S,6R,9S,12R,15S,18R,21S,24R)-6-benzyl-3,9,15,21-tetraisobutyl-4,10,12,16,22,24-hexamethyl-18-[[4-(pyrazol-1-ylmethyl)phenyl]methyl]-1,7,13,19-tetraoxa-4,10,16,22-tetrazacyclotetracosane-2,5,8,11,14,17,20,23-octaone] are 1 to 10 µM and 0.0001 to 0.001 µM.
The corresponding values for `CC(C)C[C@H]1C(=O)O[C@H](Cc2ccc(Cn3c(C#N)ccc3C#N)cc2)C(=O)N(C)[C@@H](CC(C)C)C(=O)O[C@H](C)C(=O)N(C)[C@@H](CC(C)C)C(=O)O[C@H](Cc2ccc(Cn3c(C#N)ccc3C#N)cc2)C(=O)N(C)[C@@H](CC(C)C)C(=O)O[C@H](C)C(=O)N1C` [Example 9-12, 1,1′-(((((2R,5S,8R,11S,14R,17S,20R,23S)-5,11,17,23-tetraisobutyl-4,8,10,16,20,22-hexamethyl-3,6,9,12,15,18,21,24-octaoxo-1,7,13,19-tetraoxa-4,10,16,22-tetraazacyclotetracosane-2,14-diyl)bis(methylene))bis(4,1-phenylene))bis(methylene))bis(1H-pyrrole-2,5-dicarbonitrile)] are not above 1 µM and not above 0.0001 µM.
Turning to `CC(C)C[C@H]1C(=O)O[C@H](Cc2ccc(C(C)(C)n3cccn3)cc2)C(=O)N(C)[C@@H](CC(C)C)C(=O)O[C@H](C)C(=O)N(C)[C@@H](CC(C)C)C(=O)O[C@H](Cc2ccc(C(C)(C)n3cccn3)cc2)C(=O)N(C)[C@@H](CC(C)C)C(=O)O[C@H](C)C(=O)N1C` [Example 1c-6, (3S,6R,9S,12R,15S,18R,21S,24R)-6,18-bis(4-(2-(1H-pyrazol-1-yl)propan-2-yl)benzyl)-3,9,15,21-tetraisobutyl-4,10,12,16,22,24-hexamethyl-1,7,13,19-tetraoxa-4,10,16,22-tetraazacyclotetracosan-2,5,8,11,14,17,20,23-octaone], the values for the minimal effective concentration in assay [1] and in assay [2] were not above 1 µM and not above 0.0001 µM, respectively.
Take `CC(C)C[C@H]1C(=O)O[C@H](Cc2cccc(Cn3cc(Br)cn3)c2)C(=O)N(C)[C@@H](CC(C)C)C(=O)O[C@H](C)C(=O)N(C)[C@@H](CC(C)C)C(=O)O[C@H](Cc2cccc(Cn3cc(Br)cn3)c2)C(=O)N(C)[C@@H](CC(C)C)C(=O)O[C@H](C)C(=O)N1C` [Example 4-2, (3S,6R,9S,12R,15S,18R,21S,24R)-6,18-bis(3-((4-bromo-1H-pyrazol-1-yl)methyl)benzyl)-3,9,15,21-tetraisobutyl-4,10,12,16,22,24-hexamethyl-1,7,13,19-tetraoxa-4,10,16,22-tetraazacyclotetracosan-2,5,8,11,14,17,20,23-octaone]: the minimal effective concentration was in the range of 0.001 to 0.01 µM in assay [3] and 0.0001 to 0.001 µM in assay [2].
On the same counts, the results for `CC(C)C[C@H]1C(=O)O[C@H](Cc2ccc(Cn3cc(C#CC4CC4)cn3)cc2)C(=O)N(C)[C@@H](CC(C)C)C(=O)O[C@H](C)C(=O)N(C)[C@@H](CC(C)C)C(=O)O[C@H](Cc2ccc(Cn3cc(C#CC4CC4)cn3)cc2)C(=O)N(C)[C@@H](CC(C)C)C(=O)O[C@H](C)C(=O)N1C` [Example 1b-113, (3S,6R,9S,12R,15S,18R,21S,24R)-6,18-bis(4-((4-(cyclopropylethynyl)-1H-pyrazol-1-yl)methyl)benzyl)-3,9,15,21-tetraisobutyl-4, 10,12,16,22,24-hexamethyl-1,7,13,19-tetraoxa-4,10,16,22-tetraazacyclotetracosan-2,5,8,11,14,17,20,23-octaone] are 0.01 to 0.1 µM and 0.0001 to 0.001 µM.
The corresponding values for `CC(C)C[C@H]1C(=O)O[C@H](Cc2ccc(Cn3ncnc3-c3ccc(Cl)cc3)cc2)C(=O)N(C)[C@@H](CC(C)C)C(=O)O[C@H](C)C(=O)N(C)[C@@H](CC(C)C)C(=O)O[C@H](Cc2ccc(Cn3ncnc3-c3ccc(Cl)cc3)cc2)C(=O)N(C)[C@@H](CC(C)C)C(=O)O[C@H](C)C(=O)N1C` [Example 9-58, (3S,6R,9S,12R,15S,18R,21S,24R)-6,18-bis(4-((5-(4-chlorophenyl)-1H-1,2,4-triazol-1-yl)methyl)benzyl)-3,9,15,21-tetraisobutyl-4,10,12,16,22,24-hexamethyl-1,7,13,19-tetraoxa-4,10,16,22-tetraazacyclotetracosan-2,5,8,11,14,17,20,23-octaone] are 0.01 to 0.1 µM and 0.001 to 0.01 µM.
As for `CC(C)C[C@H]1C(=O)O[C@H](Cc2ccc(Cn3nc(C(F)(F)F)cc3C(F)(F)F)cc2)C(=O)N(C)[C@@H](CC(C)C)C(=O)O[C@H](C)C(=O)N(C)[C@@H](CC(C)C)C(=O)O[C@H](Cc2ccccc2)C(=O)N(C)[C@@H](CC(C)C)C(=O)O[C@H](C)C(=O)N1C` [Example 2-55, (3S,6R,9S,12R,15S,18R,21S,24R)-6-benzyl-18-(4-((3,5-bis(trifluoromethyl)-1H-pyrazol-1-yl)methyl)benzyl)-3,9,15,21-tetraisobutyl-4,10,12,16,22,24-hexamethyl-1,7,13,19-tetraoxa-4,10,16,22-tetraazacyclotetracosan-2,5,8,11,14,17,20,23-octaone], the values for the minimal effective concentration in assay [3] and in assay [2] were 0.001 to 0.01 µM and 0.0001 to 0.001 µM, respectively.
Turning to `CC(C)Cc1ccnn1Cc1ccc(C[C@H]2OC(=O)[C@H](CC(C)C)N(C)C(=O)[C@@H](C)OC(=O)[C@H](CC(C)C)N(C)C(=O)[C@@H](Cc3ccc(Cn4nccc4CC(C)C)cc3)OC(=O)[C@H](CC(C)C)N(C)C(=O)[C@@H](C)OC(=O)[C@H](CC(C)C)N(C)C2=O)cc1` [Example 1b-209, (3S,6R,9S,12R,15S,18R,21S,24R)-3,9,15,21-tetraisobutyl-6,18-bis(4-((5-isobutyl-1H-pyrazol-1-yl)methyl)benzyl)-4,10,12,16, 22,24-hexamethyl-1,7,13,19-tetraoxa-4,10,16,22-tetraazacyclotetracosan-2,5,8,11,14,17,20,23-octaone], the minimal effective concentration was 0.01 to 0.1 µM in assay [3] and 0.0001 to 0.001 µM in assay [2].
The corresponding values for `COc1ccc(-c2ccnn2Cc2ccc(C[C@H]3OC(=O)[C@H](CC(C)C)N(C)C(=O)[C@@H](C)OC(=O)[C@H](CC(C)C)N(C)C(=O)[C@@H](Cc4ccc(Cn5nccc5-c5ccc(OC)cc5)cc4)OC(=O)[C@H](CC(C)C)N(C)C(=O)[C@@H](C)OC(=O)[C@H](CC(C)C)N(C)C3=O)cc2)cc1` [Example 1b-149, (3S,6R,9S,12R,15S,18R,21S,24R)-3,9,15,21-tetraisobutyl-6,18-bis(4-((5-(4-methoxyphenyl)-1H-pyrazol-1-yl)methyl)benzyl)-4,10,12,16,22,24-hexamethyl-1,7,13,19-tetraoxa-4,10,16,22-tetraazacyclotetracosan-2,5,8,11,14,17,20,23-octaone] are 0.01 to 0.1 µM and 0.001 to 0.01 µM.
Consider `CC(C)C[C@H]1C(=O)O[C@H](Cc2ccc(Cn3nccc3C3CCCC3)cc2)C(=O)N(C)[C@@H](CC(C)C)C(=O)O[C@H](C)C(=O)N(C)[C@@H](CC(C)C)C(=O)O[C@H](Cc2ccc(Cn3nccc3C3CCCC3)cc2)C(=O)N(C)[C@@H](CC(C)C)C(=O)O[C@H](C)C(=O)N1C` [Example 1b-154, (3S,6R,9S,12R,15S,18R,21S,24R)-6,18-bis(4-((5-cyclopentyl-1H-pyrazol-1-yl)methyl)benzyl)-3,9,15,21-tetraisobutyl-4,10,12,16,22,24-hexamethyl-1,7,13,19-tetraoxa-4,10,16,22-tetraazacyclotetracosan-2,5,8,11,14,17,20,23-octaone], for which the values for the minimal effective concentration in assay [3] and in assay [2] were 0.001 to 0.01 µM and not above 0.0001 µM, respectively.
Consider `CCOc1cn(Cc2ccc(C[C@H]3OC(=O)[C@H](CC(C)C)N(C)C(=O)[C@@H](C)OC(=O)[C@H](CC(C)C)N(C)C(=O)[C@@H](Cc4ccc(Cn5ncc(OCC)c5C)cc4)OC(=O)[C@H](CC(C)C)N(C)C(=O)[C@@H](C)OC(=O)[C@H](CC(C)C)N(C)C3=O)cc2)nc1C` [Example 1a-38, (3S,6R,9S,12R,15S,18R,21S,24R)-6-[[4-[(4-ethoxy-3-methyl-pyrazol-1-yl)methyl]phenyl]methyl]-18-[[4-[(4-ethoxy-5-methyl-pyrazol-1-yl)methyl]phenyl]methyl]-3,9,15,21-tetraisobutyl-4,10,12,16,22,24-hexamethyl-1,7,13,19-tetraoxa-4,10,16,22-tetrazacyclotetracosane-2,5,8,11,14,17,20,23-octaone], for which the minimal effective concentration in assay [3] and in assay [2] was 0.001 to 0.01 µM each time.

The values above are taken from US11331369B2, “Endoparasitic depsipeptides” (Zoetis Services LLC, priority 2017, dated 2022).
